Test results reported in ChEMBL document CHEMBL5236656, “The effect of diphenylethane side-chain substituents on dibenzocyclohexadiene formation and their inhibition of α-synuclein aggregation in vitro” (Bioorg Med Chem, 2023).

Columns and labels:
[1] = molecular target: Alpha-synuclein (Homo sapiens) (UniProt P37840); assay: Inhibition of alpha-Synuclein (unknown origin) aggregation assessed as aggregation by measuring ThT fluorescence at 100 uM incubated for 5 days by ThT fluorescence assay (reference value: 100%); design: scale not given: the % may be the effect or the level left; conditions: time 5.0 day
[2] = molecular target: Alpha-synuclein (Homo sapiens) (UniProt P37840); assay: Inhibition of alpha-Synuclein (unknown origin) aggregation assessed as aggregation by measuring ThT fluorescence at 500 uM incubated for 5 days by ThT fluorescence assay (reference value: 100%); design: scale not given: the % may be the effect or the level left; conditions: time 5.0 day

| Activity [1] [%] | Activity [2] [%] | SMILES |
| --- | --- | --- |
| 28.6 | 13.6 | C[C@@H]1Cc2cc(O)c(O)cc2-c2cc(O)c(O)cc2C[C@@H]1C |
| 56.1 | 39.8 | CC1(C)c2cc(O)c(O)cc2-c2cc(O)c(O)cc2C1(C)C |
| 27.8 | 10.7 | Oc1cc2c(cc1O)-c1c(ccc(O)c1O)CC2 |
| 36.1 | 15.5 | CC1(C)c2cc(O)c(O)cc2-c2c(ccc(O)c2O)C1(C)C |
| 66.1 | 45.6 | CC1c2cc(O)c(O)cc2-c2c(ccc(O)c2O)C1C (configuration not stated) |
| 33.6 | 25.9 | Oc1cc2ccc3cc(O)c(O)cc3c2cc1O |
| 22.2 | 16.8 | Oc1cc2c(cc1O)-c1cc(O)c(O)cc1CC2 |
| 44.4 | 9.2 | CC(C)(c1ccc(O)c(O)c1)C(C)(C)c1ccc(O)c(O)c1 |
| 31.8 | 6.1 | CC(c1ccc(O)c(O)c1)C(C)c1ccc(O)c(O)c1 (mixture of isomers) |
| 47.3 | 19.3 | Cc1c(C)c2cc(O)c(O)cc2c2cc(O)c(O)cc12 |
| 35.6 | 8.1 | Oc1ccc(CCc2ccc(O)c(O)c2)cc1O |
